For series [1], the system named is NAMPT. The series can be described thus: NAMPT expression in melanoma cells (Western blot, QPCR). Type of series: cell-based, human. On the procedure: The proteins were visualized using the ECL system (Amersham).
The mRNA was isolated using TRIzol (Invitrogen) according to a standard procedure. QRT-PCR was performed using SYBR® Green I (Eurogentec, Seraing, Belgium) and Multiscribe Reverse Transcriptase (Applied Biosystems) and subsequently monitored using the ABI Prism 7900 Sequence Detection System (Applied Biosystems, Foster City, Calif.). The detection of the SB34 gene was used to normalize the results. Primer sequences for each cDNA were designed using either Primer Express Software (Applied Biosystems) or qPrimer depot (http://primerdepot.nci.nih.gov), and these sequences are available upon request.
Background: In western blotting, separated proteins are transferred to a membrane and probed.

The test system of series [2] is WM9 melanoma cell xenograft. Kind of series: WM9 melanoma xenograft growth in nude mice. Type of series: in vivo. The following applies: 15 mg/kg every two days, athymic nude mice, versus vehicle, FIG. 4C. The method, then: (§1) Animal experiments were performed in accordance with French law and approved by a local institutional ethical committee. The animals were maintained in a temperature controlled facility (22° C.) on a 12-h light/dark cycle and provided free access to food (standard laboratory chow diet from UAR, Epinay-S/Orge, France). Human WM9 melanoma cells, responsive or resistant to PLX4032 (2×10^6 cells), were subcutaneously inoculated into 8-week-old female, immune-deficient, athymic, nude FOXN1nu mice (Harlan Laboratory). When the tumors became palpable (0.1-0.2 cm3), the mice received an intraperitoneal injection of PLX4032 (25 mg/kg), FK866 (15 mg/kg) or both drugs dissolved in a mixture of Labrafil M1944 Cs, dimethylacetamide, and Tween 80 (90:9:1, v/v/v) three times per week. Control mice were injected with Labrafil alone. The growth tumor curves were determined after measuring the tumor volume using the equation V=(L×W2)/2. At the end of the experiment, the mice were euthanized by cervical dislocation, and the tumors were harvested for immunofluorescence.

Series [3] concerns intracellular NAD+ in melanoma cells. The series can be described thus: Intracellular NAD+ measurement (NAD/NADH Quantitation Kit). Format: cell-based, human. Particulars: for intracellular NAD+ levels: 5 μM, 24 h (FIG. 1B). The method, then:
Human melanoma cell lines and short-term cultures derived from different patients with metastatic malignant melanoma cells were grown in DMEM supplemented with 7% FBS at 37° C. in a humidified atmosphere containing 5% CO2. PLX4032-sensitive and PLX4032-resistant melanoma cells were previously described (Bonet et al. 2012; Ohanna et al. 2014). Lipofectamine™ RNAiMAX and opti-MEM medium were purchased from Invitrogen (San Diego, Calif., USA). FK866 was obtained from Sigma, U0126 and GSK1120212 were purchased from Euromedex, and PD98059 and SCH77294 were obtained from Selleck Chemicals. The STAT5 inhibitor (CAS 285986-31-4) was purchased from Sigma. Intracellular NAD+ was measured using the NAD/NADH Quantitation Kit from Sigma according to the manufacturer's instructions.

The subject of series [4] is BRAFV600E human melanoma cells. The series can be described thus: Cell proliferation / viability (cell counting), BRAFV600E cells. Type of series: cell-based. On the procedure:
(§2) The cells were seeded onto 12-well dishes (10×10^3 cells), and at 48 h post transfection or treatment, the cells were trypsinized from days 1 to 4, counted in triplicate using a hemocytometer. The experiments were performed at least three times.

Series [5] has as its system BRAFi-resistant A375 (A375R) and WM9 (WM9R) melanoma cells. The series can be described thus: Proliferation and PLX4032 sensitivity of BRAFi-resistant melanoma cells. Format: cell-based, human. On the procedure: as §2
A short description of series [6]: Body weight of treated mice. Format: in vivo. The following applies: FK866 15 mg/kg, not shown. The method, then:
as §1

Series [7] has as its system A375R melanoma cell xenografts. Kind of series: PLX4032-resistant A375 (A375R) xenograft growth in mice. Format: in vivo.
Series [8] relates to BRAFi-resistant WM9 melanoma cell xenografts. Kind of series: PLX4032-resistant WM9 (WM9R) xenograft growth in nude mice. Format: in vivo. The following applies: FIG. 5F. On the procedure: as §1
The next series relates to ERK. Kind of series: ERK phosphorylation (Western blot). Format: cell-based, human. The following applies: for ERK phosphorylation levels: A375 melanoma cells, data not shown; for ERK phosphorylation: A375 and WM9 cells. The method, then:
(§3) Western blotting was performed as previously described (Hilmi et al. 2008; Bertolotto et al. 2011). Briefly, cell lysates (30 μg) were separated using SDS-PAGE, transferred onto a PVDF membrane and subsequently exposed to the appropriate antibodies, anti-ERK2 (Santa Cruz Biotechnology, sc-1647 clone D-2), anti-phospho-ERK1/2 (Thr202/Tyr204) (Cell Signaling Technology Inc., #2370), anti-BRAF (Santa Cruz Biotechnology, sc-5284 clone F-7), anti-NAMPT (Sigma, #B5812), antiphospho-STAT5 (Tyr694) (Ozyme #9351), anti-STAT5 (Ozyme #9363), and anti-HSP90 (Santa Cruz biotechnology, #sc-13119). The proteins were visualized using the ECL system (Amersham). The western blots shown are representative of at least 3 independent experiments.

In series [9] the test system is NAMPT. The following applies: public microarray data GSE51115, melanoma cell lines; cited from earlier work.
Another series has as its system STAT5. The series can be described thus: STAT5 phosphorylation (Western blot). Type of series: cell-based, human. The following applies: A375 and WM9 cells. On the procedure: as §3
The next series concerns human NAMPT promoter. Kind of series: NAMPT promoter luciferase reporter assay. Format: cell-based.
Series [10] relates to BRAFWT human melanoma cells. The series can be described thus: Cell proliferation (cell counting), BRAFWT cells. Format: cell-based. Particulars: data not shown. On the procedure:
as §2

For series [11], the system named is UACC62 and WM9 human melanoma cell lines (BRAFV600E). Kind of series: Global metabolic profiling by UPLC-MS/MS. Type of series: cell-based. The following applies: FIG. 1A. On the procedure: Briefly, samples were prepared using the automated MicroLab STAR® system (Hamilton Company). Recovery standards were added prior to the first step in the extraction process for QC purposes. Cell lysates were precipitated using methanol under vigorous shaking for 2 min, followed by centrifugation. The resulting extract was divided into five fractions: two samples for analysis using two separate reversephase (RP)/UPLC-MS/MS methods with positive ion mode electrospray ionization (ESI), one sample for analysis through RP/UPLC-MS/MS with negative ion mode ESI, one sample for analysis through HILIC/UPLC-MS/MS with negative ion mode ESI, and one sample was reserved for backup. The samples were briefly placed on a TurboVap® (Zymark) to remove the organic solvent. The sample extracts were stored overnight under nitrogen prior to preparation for analysis. Chromatography analyses were performed using Waters ACQUITY ultra-performance liquid chromatography (UPLC) and a Thermo Scientific Q-Exactive high resolution/accurate mass spectrometer interfaced with a heated electrospray ionization (HESI-II) source and Orbitrap mass analyzer operated at 35,000 mass resolution. The sample extract was dried and subsequently reconstituted in solvents compatible to each method (Miller et al. 2015). […]

Setting [12] is: A375 melanoma cells, data not shown.

Consider 8 compounds from US20210072244A1, “METHODS AND COMPOSITIONS FOR TREATING MELANOMA RESISTANT” (INSERM (INSTITUT NATIONAL DE LA SANTÉ ET DE LA RECHERCHE …, priority 2018, published 2021).

Like-named read-outs stand apart in the source and are kept apart here.

Regarding `O=C(/C=C/c1cccnc1)NCCCCC1CCN(C(=O)c2ccccc2)CC1` [FK866], in the series with NAMPT [1] (A375 and WM9 cells, NAMPT siRNA or FK866), the NAMPT expression result is listed as “did not affect”. Also, the “WM9 melanoma cell xenograft growth” value in series [2] was “impaired”. The “intracellular levels of NAD+” value in series [3] (A375 and WM9 melanoma cell lines, FIG. 4A) was “dramatically decreased”. Besides, in [4] (A375 and WM9 melanoma cells, counted each day, FIG. 4B), the cell proliferation result is “impaired cell proliferation”. Moreover, the “PLX4032 sensitivity in BRAFi-resistant cells” value in series [5] (A375R and WM9R, PLX4032 5 μM) is given as “restored PLX4032 sensitivity”. Also, the melanoma cell death entry in series [5] (BRAFi-resistant melanoma cells, both in vitro and in vivo) is “caused melanoma cell death”. In addition, in series [6], the “weight loss in the treated mice” value is given as “no weight loss”. The “melanoma progression (A375R xenograft)” value in series [7] (FK866 1.5 mg/kg and 15 mg/kg, FIG. 5E) was “dose-dependently reduced”. Further, the “NAD+ in treated tumors” value in series [7] (FK866-treated tumors, data not shown) is “reduction”. Besides, in [8], the “tumor growth of BRAFi-resistant WM9 xenografts” value was “inhibited tumor growth”.
In the case of `O=C(Nc1ccc2[nH]nc(-c3ccncc3)c2c1)[C@@H]1CCN(CC(=O)N2CCN(c3ccc(-c4ncccn4)cc3)CC2)C1` [SCH77294], the NAMPT expression result with NAMPT [1] (setting [12]) is listed as “inhibition of NAMPT expression”. Moreover, in the series with ERK, the ERK phosphorylation levels result is reported as “inhibition of ERK phosphorylation levels”.
On to `N#CC(=C(/N)Sc1ccccc1N)/C(C#N)=C(\N)Sc1ccccc1N` [U0126], for which, in the series with NAMPT [1] (setting [12]), the NAMPT expression entry is “inhibition of NAMPT expression”. For the same compound, the ERK phosphorylation levels entry in the series with ERK was “inhibition of ERK phosphorylation levels”.
Regarding `COc1cccc(-c2cc(=O)c3ccccc3o2)c1N` [PD98059], in the series with NAMPT [1] (setting [12]), the NAMPT expression entry is on record as “inhibition of NAMPT expression”. The ERK phosphorylation levels result in the series with ERK is “inhibition of ERK phosphorylation levels”.
For the compound `O=C(NOC[C@H](O)CO)c1ccc(F)c(F)c1Nc1ccc(I)cc1F` [PD0325901], the NAMPT expression result in the series with NAMPT [9] was “inhibition of NAMPT expression”.
Consider `O=C(N/N=C/c1coc2ccccc2c1=O)c1cccnc1` [STAT5 inhibitor], for which the STAT5 phosphorylation entry in the series with STAT5 was “efficiently reduced”. Besides, the NAMPT expression entry in the series with NAMPT [1] (BRAF and STAT5 inhibitors, data not shown) is “decreased”. In series [3] (A375 and WM9 cells exposed to STAT5 inhibitor, FIG. 3F), the “NAD+ levels” value is “decreased”. For the same compound, the “BRAFV600E-stimulated NAMPT promoter activity” value with human NAMPT promoter (501MEL cells transfected with BRAFV600E vector, 100 μM, 48 h (FIG. 3E)) is “decreased”. Besides, in the series with human NAMPT promoter (501MEL cells, control vector, 100 μM, 48 h (FIG. 3E)), the “basal NAMPT promoter activity” value was “decreased”. Besides, the ERK phosphorylation entry with ERK is “did not affect”.
As to `CC(=O)Nc1cccc(-n2c(=O)n(C3CC3)c(=O)c3c(Nc4ccc(I)cc4F)n(C)c(=O)c(C)c32)c1` [GSK1120212], in the series on NAMPT [1] (setting [12]), the NAMPT expression result was “inhibition of NAMPT expression”. Further, the ERK phosphorylation levels result in the series with ERK is on record as “inhibition of ERK phosphorylation levels”.
As for `CCCS(=O)(=O)Nc1ccc(F)c(C(=O)c2c[nH]c3ncc(-c4ccc(Cl)cc4)cc23)c1F` [PLX4032], the cell proliferation result in series [10] was “not in BRAFWT human melanoma cells”; in series [4] (BRAFV600E human melanoma cells, data not shown), “inhibited cell proliferation”. The “nicotinamide adenine dinucleotide (NAD+) levels” value in series [11] is given as “reduced”. The STAT5 phosphorylation entry in the series on STAT5 is “inhibited”. Moreover, the “NAMPT expression, protein level” value in the series with NAMPT [1] (4 different BRAFV600E melanoma cells, data not shown) is on record as “reduced NAMPT expression”. Besides, the “NAMPT expression, mRNA level” value in the series with NAMPT [1] (BRAFV600E melanoma cells, QPCR, FIG. 2A) is recorded as “reduced NAMPT expression”. In the series on NAMPT [1] (BRAFWT human melanoma cells, data not shown), the NAMPT expression result is on record as “No inhibition”. In addition, the “intracellular NAD+ levels” value was “not in BRAFWT human melanoma cells” in [3] (BRAFWT human melanoma cells); “reduced intracellular NAD+ levels” in series [3] (all BRAFV600E-mutated melanoma cell lines and short-term cultures). Moreover, the viability result in series [4] (A375 and WM9 melanoma cells, 5 μM, 72 h (FIG. 5B)) was “inhibited the viability”. Moreover, the NAMPT promoter activity result in the series on human NAMPT promoter (A375 and WM9 cells, FIGS. 3A-B) is on record as “dose-dependent decrease”. The “NAMPT promoter activity, significance over doses” value in the series with human NAMPT promoter (A375 cells, 48 h, p<0.0034) is on record as “all the PLX4032 doses lead to significant decrease”. Besides, in the series on human NAMPT promoter (WM9 cells, 48 h, p<0.014, in µM), the “PLX4032 dose giving significant decrease in NAMPT promoter activity” value is reported as > 0.005. Further, the “tumor growth of BRAFi-resistant WM9 xenografts” value in series [8] is “not affected”. The ERK phosphorylation entry with ERK is recorded as “inhibited”.
